This note sets out measurements from US20220411448A1, “CHROMENE-4-ONE DERIVATIVES AS BRAIN-DERIVED NEUROTROPHIC FACTOR (BDNF) MIMETICS” (FLORATEK PHARMA AG, priority 2019, published 2022).

A short description of series [1]: Metabolic stability in mouse liver microsomes. In kind it is in vitro ADME. Conditions: male, CD1, mouse, pooled liver microsomes, pH 7.4, 0.5 mg/ml protein, read-out: T1/2 LM mouse. How it is done: Sample type: pooled liver or intestine microsomes; Species: CD1-mouse (male), human (mixed gender) Time points: 0, 10, 20, 40, 60 min cofactors, and negative control;
Protein content: 0.5 mg/ml: Replicates: 2 with cofactors, 1 without cofactors; Cofactors: NADPH (1 mM)+UDPGA (1 mM)+15 μg/ml alamethicin Buffer: 0.1 M phosphate buffer pH 7.4, 2 mM MgCl2; Spiking solvent: 50% DMSO ( 1/100 to incubation); Quenching solvent: 2-fold volume of 75% ACN, Control: midazolam disappearance rate
The study compounds were incubated with liver or intestine microsomes as specified above. The collected samples were stored at −20 C until thawed at room temperature, centrifuged and analyzed as presented below.
The samples were analysed by UPLC/HR-MS (with data dependent MS/MS mode) to monitor substrate depletion (and later optionally metabolite formation). The analytical method was optimised by using the parent compound for optimum chromatographic properties (peak shape and retention) and mass spectrometric ionisation. Disappearance rate of the study compound was estimated based on relative LC/MS peak areas (o min marked as 100%), and was used to calculate in vitro half-life and clearance (and in vivo extrapolation of hepatic clearance).
(In general: Microsomes from liver hold many membrane-bound enzymes, among them those of drug oxidation.)

Series [2] relates to IL-6. Put plainly: LPS stimulation of BV-2 microglia: IL-6. The note with it: between 0.3 and 3 μM, BV2, LPS 500 ng/ml, 24 h. The class given is cell-based, murine. The method, then: The murine microglial cell line BV-2 was grown in DMEM medium supplemented with 10% FCS, 1% penicillin/streptomycin and 2 mM L-glutamine (culture medium). For LPS stimulation assay, 10000 BV-2 cells per well (uncoated 96 well plates) were plated and after 24 hours, medium was changed to serum-free treatment medium (DMEM, 2 mM L-glutamine) and cells were maintained in treatment medium for the remaining culture period. 1 h after changing cells to treatment medium, the test items were added 1 hour before LPS stimulation (Sigma-Aldrich; L6529; 1 mg/ml stock in ddH2O, final concentration in well: 500 ng/ml (dilutions in medium)). Cells treated with vehicle, cells treated with LPS alone, as well as cells treated with LPS plus reference dexamethasone at 10 μM item served as controls.
Following 24 h of stimulation, cell supernatants were collected for the NO, and cytokine measurements. Levels of 2 cytokines (TNF-α, IL-6) were measured by an immunosorbent assay (U-PLEX Custom […] Cytokine, Mesoscale Discovery) according to the instructions of the manufacturer and evaluated in comparison to calibration curves provided in the kit. […] Absorbance was measured at 570 nm. Nitrosative stress was evaluated in the study samples in comparison to a NaNO2 standard curve. […]

The subject of series [3] is Astrocytes. Put plainly: Cellular ATP/ADP ratio (luciferase, CellTiter-Glo). In kind it is cell-based, mouse. The method, then:
ATP content was measured enzymatically as previously described [Lambert H P et al, Control of Mitochondrial pH by Uncoupling Protein 4 in Astrocytes Promotes Neuronal Survival, 2014 The Journal of Biological Chemistry 289, 31014-31028] using a luciferase assay, the CellTiter-Glo Luminescent cell viability assay (Promega). Astrocytes grown on multiplate of 48 wells were rinsed and incubated 1 h at 37° C. in an atmosphere containing 5% CO2 and 95% air in DMEM (D5030; Sigma-Aldrich) containing 44 mm NaHCO3 and 2 mm glucose. At the end of the incubation, medium was removed, and 200 μl of Tricine buffer solution (40 mm Tricine, 3 mm EDTA, 85 mm NaCl, 3.6 mm KCl, 100 mm NaF, and 0.1% saponin (84510; Sigma-Aldrich), pH 7.4) was put in each well. Cells were lysed by saponin effect and by pipetting. Each sample was divided for ATP measure and for ATP+ADP measure. 90-μl aliquots were distributed in a black-walled 96-well type microplates (PerkinElmer Life Sciences). […] Finally, 100 μl of CellTiter-Glo reagent (G7571; Promega) was added, and luminescence was immediately detected with a luminometer (Safire 2; Tecan). Luminescence was measured in a kinetic way determined by 20 readings at intervals of 1 min. Luminescence read at the plateau were taken to calculate the ATP/ADP ratio. […]
On the technique in general: Cellular ATP, detected with luciferase, serves as a proxy for viable cell number.

Series [4] deals with primary brain cell cultures. The series is described as follows: NAD/NADH cycling assay. The note with it: after 30 min in the presence of the compound. In kind it is cell-based, mouse. How it is done:
Cycling assays for nicotinamide adenine dinucleotides was performed as described [Yang J, et al, Lactate promotes plasticity gene expression by potentiating NMDA signaling in neurons. Proc Natl Acad Sci USA. 2014. 111(33):12228-33]. Briefly, cells were rinsed two times with ice-cold PBS, harvested in 400 μL ice-cold carbonate-bicarbonate buffer (100 mM Na2CO3 and 20 mM NaHCO3 containing 10 mM nicotinamide to inhibit NADase), and frozen at −80° C. Cell membranes were lysed by heat shock in a 37° C. water bath and immediately chilled on ice. Extracts were centrifuged at 12,000×g for 30 min at 4° C. and half of the supernatant was heated at 60° C. for 30 min to denature NAD. Twenty-five microliters of the heated extract (containing NADH only), 100 μL of the unheated extract (containing NAD and NADH), and 50 μL of standards of known NADH (Roche) concentrations (ranging from 0.0625 to 1 μM) dissolved in carbonate bicarbonate buffer were loaded onto a 96-well microplate along with blanks (carbonate-bicarbonate buffer). Volumes were adjusted to 100 μL with carbonate-bicarbonate buffer and 150 μL of a reaction buffer was added into each well. […] The absorbance was followed spectrophotometrically at 560 nm every 15 s over a 5-min period (Safire 2; Tecan). Blank values were subtracted from all samples and NAD amounts were calculated by subtracting NADH values from total NAD+NADH values.

Each structure is given as a SMILES string.

With `O=c1cc(-c2ccc(CCCC[P+](c3ccccc3)(c3ccccc3)c3ccccc3)cc2)oc2c(O)c(O)ccc12` [SND118, 4-[4-(7,8-dihydroxy-4-oxo-chromen-2-yl)phenyl]butyltriphenylphosphonium bromide], the half-life at 1 μM in series [1] is 23 min. Also, the “level of IL-6 in response to LPS stimulation” value in series [2] is “significantly decreased”. The “production of ATP” value in series [3] (100 nM, 30 min) is “increased production of ATP”. In addition, in series [3] (various doses), the ATP/ADP ratio entry is listed as “trended higher at most doses”. Also, the “production of NADH (NAD/NADH ratio)” value in series [4] was “increased production of ATP and NADH”.
